Results published in patent US5686424A, “2-oxoethyl derivatives as immunosuppressants” (Miles Inc., priority 1995, dated 1997).
Structures can show the parent of a compound that is named as a salt.

Assays:
NF-AT = NF-AT Inhibition Assay Directed β-Galactosidase Expression in FGL-5 cells; assay type: cell-based; settings: 50% inhibition of NF-AT directed β-galactosidase activity in FGL-5 cells stimulated with phorbol dibutyrate and ionomycin; TABLE 3
In short: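 FGL-5 Jurkat cells (3 million cells/ml) carry NF-AT-site-driven lacZ. They were stimulated with phorbol dibutyrate plus ionomycin and incubated with compound 16-18 h at 37 °C, in duplicate wells with matched ethanol or DMSO vehicle controls. β-Galactosidase was read as fluorescence from 4-methylumbelliferyl-β-D-galactoside cleavage, giving percent inhibition.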

FKBP = FKBP (Homo sapiens, UniProt P62942); assay: PPIase Inhibition Assay; assay type: biochemical; settings: concentration of inhibitor required for 50% inhibition of enzyme activity; FKBP, substrate Succinyl-Ala-Phe-Pro-Phe-para-nitroanilide; TABLE I
Sequence of FKBP (P62942 whole entry): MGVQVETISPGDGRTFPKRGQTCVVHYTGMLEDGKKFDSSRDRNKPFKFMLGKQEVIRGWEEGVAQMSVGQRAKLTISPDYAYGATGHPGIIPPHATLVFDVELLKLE
In short: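 Chymotrypsin-coupled isomerization of Succinyl-Ala-Phe-Pro-Phe-para-nitroanilide by FKBP in ice-cold 25 mM HEPES pH 7.8, 100 mM NaCl, compound in DMSO. A390 followed 90 sec; first-order rate constants give % activity remaining after subtracting uncatalyzed rate; IC50 by linear regression of V-/V+ versus concentration.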

human T-cells = assay: Suppression of Human T-Cell Proliferation Assay (PHA-stimulated, [3H]-thymidine incorporation); assay type: cell-based; settings: concentration inhibiting [3H]-thymidine incorporation of PHA-stimulated T-cells by 50%, 72 hours; TABLE 2; read-out: IC50
In short: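 SRBC-rosette-purified human peripheral T-cells stimulated with PHA-M (40 μg/ml stock) and compound dilutions, in duplicate, for 72 h at 37° C. Proliferation measured by [3H]-thymidine incorporation during the final 6 h, read by liquid scintillation counting.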

SMILES | IC50 (NF-AT) [µM] | IC50 (FKBP) [µM] | IC50 (human T-cells) [µM]
CCOc1cc(C(=O)CN2CCC[C@H]2C(=O)N[C@H](C(=O)NCc2ccccc2)[C@@H](C)CC)cc(OCC)c1OCC [Example 106, L-Isoleucine, N-[1-(2-(3,4,5-Triethoxyphenyl)-2-Oxoethyl)-L-Prolyl] Benzylamide] | > 15 | < 5 | > 15
CC[C@H](C)[C@H](NC(=O)[C@@H]1CCCN1CC(=O)c1ccc(OCCOc2ccccc2)cc1)C(=O)NCc1ccccc1 [Example 108, L-Isoleucine, N-[1-{2-Oxo-2-[4-(2-Phenoxyethoxy)-Phenyl]-Ethyl}-L-Prolyl] Benzylamide] | > 15 | < 5 | > 15
CC[C@H](C)[C@H](NC(=O)[C@@H]1CCCN1CC(=O)c1ccc(OC)c(OC)c1OC)C(=O)NCc1ccccc1 [Example 115, L-Isoleucine, N-[1-(2-(2,3,4-Trimethoxyphenyl)-2-Oxoethyl)-L-Prolyl] Benzylamide] | > 15 | > 5 | 7
CC[C@H](C)[C@H](NC(=O)[C@@H]1CCCN1CC(=O)C1(c2ccccc2)CCCCC1)C(=O)NCc1ccccc1 [Example 116, L-Isoleucine, N-[1-(2-(1-Phenylcyclohexyl)-2-Oxoethyl)-L-Prolyl] Benzylamide] | 14 | < 5 | 6
CC[C@H](C)[C@H](NC(=O)[C@@H]1CCCN1CC(=O)c1cc(OC)c(OC)cc1OC)C(=O)NCc1ccccc1 [Example 117, L-Isoleucine, N-[1-(2-(2,4,5-Trimethoxyphenyl)-2-Oxoethyl)-L-Prolyl] Benzylamide] | > 15 | < 5 | > 15
COc1cc(C(=O)CN2CCC[C@H]2C(=O)NCCCc2ccccc2)cc(OC)c1OC [Example 122, L-Proline, 1-[2-(3,4,5-Trimethoxyphenyl)-2-Oxoethyl] 3-Phenylpropylamide Hydrochloride] | > 15 | > 5 | 8
COc1cc(C(=O)CN2CCC[C@H]2C(=O)NCCCCc2ccccc2)cc(OC)c1OC [Example 123, L-Proline, 1-[2-(3,4,5-Trimethoxyphenyl)-2-Oxoethyl] 4-Phenylbutylamide Hydrochloride] | > 15 | > 5 | 10
COc1cc(C(=O)CN2CCC[C@H]2C(=O)NCCc2ccccn2)cc(OC)c1OC [Example 124, L-Proline, 1-[2-(3,4,5-Trimethoxyphenyl)-2-Oxoethyl] 2-(Pyrid-2-yl)ethylamide Dihydrochloride] | > 15 | > 5 | > 15
C=CCOC(=O)Nc1ccc(CCCOC(=O)[C@@H]2CCCN2CC(=O)c2cc(OC)c(OC)c(OC)c2)cc1 [Example 126, L-Proline, 1-[2-(3,4,5-Trimethoxyphenyl)-2-Oxoethyl] 3-(4-[N-Carboallyloxy]aminophenyl)propyl Ester Hydrochloride] | > 15 | > 5 | 10
COc1cc(C(=O)CN2CCC[C@H]2C(=O)NCC2CCCO2)cc(OC)c1OC (stereo partly drawn) [Example 128, L-Proline, 1-[2-(3,4,5-Trimethoxyphenyl)-2-Oxoethyl] Tetrahydrofurfurylamide] | > 15 | > 5 | 4
COc1cc(C(=O)CN2CCC[C@H]2C(=O)NCc2cccc3ccccc23)cc(OC)c1OC [Example 129, L-Proline, 1-[2-(3,4,5-Trimethoxyphenyl)-2-Oxoethyl] Naphthalen-1-ylmethylamide] | > 15 | > 5 | 10
COc1cc(C(=O)CN2CCC[C@H]2C(=O)NCCc2ccc(S(N)(=O)=O)cc2)cc(OC)c1OC [Example 130, L-Proline, 1-[2-(3,4,5-Trimethoxyphenyl)-2-Oxoethyl] 2-(4-Sulfamoylphenyl)ethylamide] | > 15 | > 5 | 4

Further lines, with some results ahead:

IC50 (NF-AT) [µM] | IC50 (FKBP) [µM] | SMILES | IC50 (human T-cells) [µM]
0.6 | < 5 | CC[C@H](C)[C@H](NC(=O)[C@@H]1CCCN1CC(=O)c1ccc2c(c1)OCO2)C(=O)NCc1ccccc1 [Example 107, L-Isoleucine, N-[1-(2-(Benzo[1,3]dioxol-5-yl)-2-Oxoethyl)-L-Prolyl] Benzylamide] | 1
> 15 | < 5 | CC[C@H](C)[C@H](NC(=O)[C@@H]1CCCN1CC(=O)c1ccc(Oc2ccccc2)cc1)C(=O)NCc1ccccc1 [Example 109, L-Isoleucine, N-[1-(2-(4-Phenoxyphenyl)-2-Oxoethyl)-L-Prolyl] Benzylamide] | 5
> 15 | < 5 | CC[C@H](C)[C@H](NC(=O)[C@@H]1CCCN1CC(=O)c1c(OC)cc(OC)cc1OC)C(=O)NCc1ccccc1 [Example 110, L-Isoleucine, N-[1-(2-(2,4,6-Trimethoxyphenyl)-2-Oxoethyl)-L-Prolyl] Benzylamide] | 6
> 15 | < 5 | CC[C@H](C)[C@H](NC(=O)[C@@H]1CCCN1CC(=O)c1cccc(OC)c1OC)C(=O)NCc1ccccc1 [Example 111, L-Isoleucine, N-[1-(2-(2,3-Dimethoxyphenyl)-2-Oxoethyl)-L-Prolyl] Benzylamide] | 7
> 15 | < 5 | CC[C@H](C)[C@H](NC(=O)[C@@H]1CCCN1CC(=O)c1c(OC)cccc1OC)C(=O)NCc1ccccc1 [Example 112, L-Isoleucine, N-[1-(2-(2,6-Dimethoxyphenyl)-2-Oxoethyl)-L-Prolyl] Benzylamide] | 7
> 15 | < 5 | CC[C@H](C)[C@H](NC(=O)[C@@H]1CCCN1CC(=O)C1(c2ccc(C)cc2)CCCCC1)C(=O)NCc1ccccc1 [Example 113, L-Isoleucine, N-[1-(2-(1-(4-Methylphenyl)cyclohexyl)-2-Oxoethyl)-L-Prolyl] Benzylamide] | 8
10 | < 5 | CC[C@H](C)[C@H](NC(=O)[C@@H]1CCCN1CC(=O)C1(c2ccc(Cl)cc2)CCCCC1)C(=O)NCc1ccccc1 [Example 114, L-Isoleucine, N-[1-(2-(1-(4-Chlorophenyl)cyclohexyl)-2-Oxoethyl)-L-Prolyl] Benzylamide] | 7
> 15 | > 5 | COc1cc(C(=O)CN2CCC[C@H]2C(=O)NCc2ccccc2)cc(OC)c1OC [Example 120, L-Proline, 1-[2-(3,4,5-Trimethoxyphenyl)-2-Oxoethyl] Benzylamide Hydrochloride] | 7
> 15 | > 5 | COc1cc(C(=O)CN2CCC[C@H]2C(=O)NCCc2ccccc2)cc(OC)c1OC [Example 121, L-Proline, 1-[2-(3,4,5-Trimethoxyphenyl)-2-Oxoethyl] 2-Phenethylamide Hydrochloride] | 7
> 15 | > 5 | COc1cc(C(=O)CN2CCC[C@H]2C(=O)NCCc2ccc(N)cc2)cc(OC)c1OC [Example 125, L-Proline, 1-[2-(3,4,5-Trimethoxyphenyl)-2-Oxoethyl] 2-(4-aminophenyl)ethylamide Dihydrochloride] | > 15
> 15 | > 5 | COc1cc(C(=O)CN2CCC[C@H]2C(=O)NCC(=O)c2ccccc2)cc(OC)c1OC [Example 127, L-Proline, 1-[2-(3,4,5-Trimethoxyphenyl)-2-Oxoethyl] 2-Phenyl-2-oxoethylamide] | > 15
